structure (smiles),measurement,value
"CNC(=O)c1cc(Oc2ccc(NC(=O)Nc3ccc(Cl)c(C(F)(F)F)c3)cc2)cc[n+]1[O-] [Experimental Synthesis 1, N-[4-chloro-3-(trifluoromethyl)phenyl]-N′-{4-[2-(N-methylcarbamoyl)-1-oxo-(4-pyridyloxy)]phenyl}urea]",melting point,232 to 234 °C
